Source: article PMC9191647 (Neuropharmacology, 2019)
Where “and” joins values, the source holds several entries; their conditions need not be identical. Identical values can stand only once. Like-named read-outs stand apart in the source and are kept apart here.

Experiments:
human 5-HT2A (h5-HT2A) = human 5-HT2A (h5-HT2A) (Homo sapiens, UniProt P28223); assay: Gq-mediated calcium flux in Flp-In T-REx 293 cells; assay type: cell-based; settings: for Emax % 5-HT: percent 5-HT maximum response; for EC50: Ca^2+ flux
mouse 5-HT2A (m5-HT2A) = mouse 5-HT2A (m5-HT2A) (Mus musculus, UniProt P35363); assay: Gq-mediated calcium flux in Flp-In T-REx 293 cells; assay type: cell-based; settings: for Emax % 5-HT: percent 5-HT maximum response
human 5-HT2B (h5-HT2B) = human 5-HT2B (h5-HT2B) (Homo sapiens, UniProt P41595); assay: Gq-mediated calcium flux in Flp-In T-REx 293 cells; assay type: cell-based
male C57BL/6J mice [1] = settings: HTR, ref Halberstadt and Geyer (2013), cited from earlier work
human subjects = settings: humans, cited from earlier work; for active doses: ref Rothlin (1957)
[2] = cited from earlier work
male C57BL/6J mice [3] = assay: Head-twitch response; assay type: in vivo, mouse; settings: for HTR induced by ALD-52 after M100,907 pretreatment: 0.1 mg/kg M100,907 SC pretreatment, then 0.3 mg/kg ALD-52; for HTR Counts (mean ± SEM): 30 min session; for ED50: Mus musculus
human 5-HT1A receptor = target: T1, human 5-HT1A receptor (Homo sapiens, UniProt P08908); assay: Competitive radioligand binding
T1 sequence (P08908 1-422): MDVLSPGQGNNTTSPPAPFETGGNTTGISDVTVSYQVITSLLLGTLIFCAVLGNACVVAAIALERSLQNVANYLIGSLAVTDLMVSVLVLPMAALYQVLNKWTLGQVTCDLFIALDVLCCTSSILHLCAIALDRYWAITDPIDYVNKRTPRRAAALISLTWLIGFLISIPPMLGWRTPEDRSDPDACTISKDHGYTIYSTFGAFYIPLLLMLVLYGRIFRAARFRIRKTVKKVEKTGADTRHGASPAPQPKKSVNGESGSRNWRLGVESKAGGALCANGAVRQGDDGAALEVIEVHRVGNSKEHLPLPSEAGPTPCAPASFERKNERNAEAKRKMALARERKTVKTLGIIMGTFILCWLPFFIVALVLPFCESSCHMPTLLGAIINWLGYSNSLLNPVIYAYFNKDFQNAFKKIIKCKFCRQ

human 5-HT2A receptor = human 5-HT2A receptor (Homo sapiens, UniProt P28223); assay: Competitive radioligand binding
human 5-HT2C receptor = target: T2, human 5-HT2C receptor (Homo sapiens, UniProt P28335); assay: biochemical; assay type: binding
T2 sequence (P28335 33-458): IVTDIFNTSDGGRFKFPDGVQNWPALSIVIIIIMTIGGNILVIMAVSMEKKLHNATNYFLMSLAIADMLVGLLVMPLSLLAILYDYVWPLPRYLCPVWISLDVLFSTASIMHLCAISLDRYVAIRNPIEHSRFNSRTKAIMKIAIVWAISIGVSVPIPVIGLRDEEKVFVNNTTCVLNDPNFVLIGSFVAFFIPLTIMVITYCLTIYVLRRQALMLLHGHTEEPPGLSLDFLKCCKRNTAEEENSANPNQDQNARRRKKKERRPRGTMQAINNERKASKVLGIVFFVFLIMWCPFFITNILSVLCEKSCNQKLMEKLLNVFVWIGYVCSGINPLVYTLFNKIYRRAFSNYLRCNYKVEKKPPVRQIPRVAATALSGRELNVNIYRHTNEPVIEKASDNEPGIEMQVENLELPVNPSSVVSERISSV

[4] = target: T3, human 5-HT2C INI (h5-HT2C) (Homo sapiens, UniProt P28335); assay type: cell-based; settings: h5-HT2C, Ca^2+ flux
T3 sequence (P28335 33-458): T2 sequence (P28335 33-458)

mice = settings: quantal scoring; ref Corne and Pickering (1967); cited from earlier work
5-HT2A = settings: ref Johnson et al., 1994, cited from earlier work

human 5-HT2A (h5-HT2A), sequence (P28223 whole entry): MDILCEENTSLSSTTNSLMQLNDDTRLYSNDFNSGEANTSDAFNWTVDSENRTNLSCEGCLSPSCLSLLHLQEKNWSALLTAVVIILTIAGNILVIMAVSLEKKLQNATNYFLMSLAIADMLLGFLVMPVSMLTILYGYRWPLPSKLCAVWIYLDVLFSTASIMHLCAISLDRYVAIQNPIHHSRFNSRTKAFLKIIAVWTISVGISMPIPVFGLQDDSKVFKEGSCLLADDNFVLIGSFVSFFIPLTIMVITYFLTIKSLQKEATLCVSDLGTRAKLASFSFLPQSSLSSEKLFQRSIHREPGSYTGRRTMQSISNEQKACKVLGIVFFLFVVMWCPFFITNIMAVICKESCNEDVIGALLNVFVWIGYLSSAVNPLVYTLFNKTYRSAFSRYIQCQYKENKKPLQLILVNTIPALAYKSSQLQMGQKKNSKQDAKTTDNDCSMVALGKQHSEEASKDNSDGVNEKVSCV
mouse 5-HT2A (m5-HT2A), sequence (P35363 whole entry): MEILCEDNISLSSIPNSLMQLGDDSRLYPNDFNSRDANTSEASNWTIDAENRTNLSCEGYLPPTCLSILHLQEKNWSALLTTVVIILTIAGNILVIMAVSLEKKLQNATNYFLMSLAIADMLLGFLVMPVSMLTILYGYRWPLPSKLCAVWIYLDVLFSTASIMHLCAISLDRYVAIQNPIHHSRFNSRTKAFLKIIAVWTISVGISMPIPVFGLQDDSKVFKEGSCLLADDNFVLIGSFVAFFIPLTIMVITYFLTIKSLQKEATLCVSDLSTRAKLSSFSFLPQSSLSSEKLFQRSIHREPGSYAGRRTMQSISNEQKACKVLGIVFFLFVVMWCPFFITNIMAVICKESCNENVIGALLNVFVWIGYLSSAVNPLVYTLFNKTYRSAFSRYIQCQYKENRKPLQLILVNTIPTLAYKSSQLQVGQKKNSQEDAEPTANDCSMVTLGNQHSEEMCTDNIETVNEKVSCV
human 5-HT2B (h5-HT2B), sequence (P41595 whole entry): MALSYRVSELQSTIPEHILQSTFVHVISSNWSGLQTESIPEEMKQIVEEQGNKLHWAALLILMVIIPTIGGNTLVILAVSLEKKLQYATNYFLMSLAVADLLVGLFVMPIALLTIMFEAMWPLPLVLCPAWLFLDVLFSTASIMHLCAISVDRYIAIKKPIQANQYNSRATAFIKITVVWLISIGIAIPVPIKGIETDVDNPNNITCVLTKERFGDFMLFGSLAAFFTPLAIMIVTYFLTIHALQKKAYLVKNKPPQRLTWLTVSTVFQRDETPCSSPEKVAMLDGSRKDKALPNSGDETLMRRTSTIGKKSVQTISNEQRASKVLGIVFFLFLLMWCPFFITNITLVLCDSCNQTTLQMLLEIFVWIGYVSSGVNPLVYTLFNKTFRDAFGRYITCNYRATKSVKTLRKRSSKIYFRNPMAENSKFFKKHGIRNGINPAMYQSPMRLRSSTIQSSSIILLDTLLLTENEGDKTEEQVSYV
human 5-HT2A receptor, sequence (P28223 whole entry): as the sequence (P28223 whole entry) above

With `CCN(CC)C(=O)[C@@H]1C=C2c3cccc4[nH]cc(c34)C[C@H]2N(C)C1` [LSD, D-lysergic acid diethylamide, reference compound] the “Emax % 5-HT” value (human 5-HT2A (h5-HT2A)) was 94 % 5-HT and 94 ± 1 % 5-HT, the EC50 (mouse 5-HT2A (m5-HT2A); Ca^2+ flux) was 4.25 nM and the “pEC50 ± SEM” value (mouse 5-HT2A (m5-HT2A); Ca^2+ flux) was 8.37 ± 0.10. For the same molecule, the “Emax % 5-HT” value (mouse 5-HT2A (m5-HT2A)) was 86 ± 3 % 5-HT, the “Emax % 5-HT” value (human 5-HT2B (h5-HT2B); percent 5-HT maximum response, N.A. = No Activity) was 78 ± 2 % 5-HT and the “ED50 μg/kg (95% CI)” value (male C57BL/6J mice [1]; hemitartrate (2:1) salt) was 52.9 (38.9–72.0) μg/kg. For the same molecule, the “ED50 nmol/kg (95% CI)” value (male C57BL/6J mice [1]) was 132.8 (97.6–180.7) nmol/kg, the active doses (human subjects) was 0.5 to 1 µg/kg and the “peak plasma level of LSD” value ([2]; humans, intravenous 2 μg/kg LSD, ref Aghajanian and Bing (1964)) was 9.5 ng/mL. The LSD in plasma ([2]; participants who had ingested 200 μg, ref Dolder et al., 2016) was 4.5 ng/mL.

In the case of `COc1cccc([C@H](O)C2CCN(CCc3ccc(F)cc3)CC2)c1OC` [M100,907, reference compound], the “HTR induced by ALD-52 after M100,907 pretreatment” value (male C57BL/6J mice [3]) is reported as “blocked”.

In the case of `CCN(CC)C(=O)[C@@H]1C=C2c3cccc4c3c(cn4C(C)=O)C[C@H]2N(C)C1` [ALD-52, 1-Acetyl-D-lysergic acid diethylamide], the Ki (human 5-HT1A receptor) is reported as 1050 nM, the “fold lower affinity than LSD for the 5-HT1A receptor” value (human 5-HT1A receptor; human 5-HT1A, relative to LSD) is reported as 111 fold and the Ki (human 5-HT2A receptor) is reported as 174 ± 43 nM. The Ki (human 5-HT2C receptor) was 10.2 ± 3.5 nM, the EC50 (human 5-HT2A (h5-HT2A); EC50, nM) was 38 nM and the EC50 (human 5-HT2A (h5-HT2A); pEC50 ± SEM) was 35.5 nM. For the same molecule, the “Emax % 5-HT” value (human 5-HT2A (h5-HT2A)) was 25 % 5-HT and 25 ± 2 % 5-HT, the EC50 (mouse 5-HT2A (m5-HT2A); EC50, nM, Ca^2+ flux) was 12 nM and the EC50 (mouse 5-HT2A (m5-HT2A); pEC50 ± SEM, Ca^2+ flux) was 11.5 nM. For the same molecule, the “Emax % 5-HT” value (mouse 5-HT2A (m5-HT2A)) was 29 ± 1 % 5-HT, the agonist activity (human 5-HT2B (h5-HT2B); Ca^2+ flux) was “no agonist activity” and the agonist activity [4] was “no agonist activity”. For the same molecule, the “HTR Counts (mean ± SEM)” value (male C57BL/6J mice [3]; 0.03 mg/kg IP) was 8.4 ± 1.6, the “HTR Counts (mean ± SEM)” value (male C57BL/6J mice [3]; 0.1 mg/kg IP) was 12.6 ± 1.1 and the “HTR induced by ALD-52 after M100,907 pretreatment” value (male C57BL/6J mice [3]) was “did not induce head twitches”. For the same molecule, the “HTR Counts (mean ± SEM)” value (male C57BL/6J mice [3]; 0.3 mg/kg IP) was 25.4 ± 3.2, the “Molar potency (relative to LSD)” value (male C57BL/6J mice [3]; HTR) was 0.45 and the ED50 (male C57BL/6J mice [3]; read-out: ED50 nmol/kg (95% CI)) was 297 nmol/kg. For the same molecule, the ED50 (male C57BL/6J mice [3]; read-out: ED50 μg/kg (95% CI)) was 131 µg/kg, the “potency relative to LSD” value (human subjects; ref Abramson (1959)) was 91% and the “potency relative to LSD” value (human subjects; ref Isbell et al. (1959)) was “equipotent”. The active doses (human subjects) was 0.5 to 1 µg/kg and the “induction of head twitches in mice” value (mice) was “does not induce head twitches”.

For `CC(C)n1cc2c3c(cccc31)[C@H]1C[C@@H](C(=O)NC3CCCCC3)CN(C)[C@@H]1C2` [amersergide], the Ki (5-HT2A; human 5-HT2A receptor vs. [^3H] ketanserin) is given as 16.2 nM and the “fold lower affinity than LY193525” value (5-HT2A; human 5-HT2A receptor) is given as ~ 20 fold.
